From ChEMBL document CHEMBL4699511, “Cedrol, a Sesquiterpene Alcohol, Enhances the Anticancer Efficacy of Temozolomide in Attenuating Drug Resistance via Regulation of the DNA Damage Response and MGMT Expression” (J Nat Prod, 2020)
One block for each compound: values may come before it. Activity calls are given as the source filed them. The calls are words filed in the database; no cut-off is given here.

How the values were obtained:
[1] = tested on: DBTRG-05MG; experiment: Cytotoxicity against human DBTRG-05MG cells assessed as reduction in cell viability after 24 hrs by MTT assay; assay type: functional, cell-based
[2] = tested on: DBTRG-05MG; experiment: Cytotoxicity against human DBTRG-05MG cells assessed as reduction in cell viability after 48 hrs by MTT assay; assay type: functional, cell-based
[3] = tested on: DBTRG-05MG; experiment: Cytotoxicity against human DBTRG-05MG cells assessed as reduction in cell viability after 72 hrs by MTT assay; assay type: functional, cell-based
[4] = tested on: RG2; experiment: Cytotoxicity against rat RG2 cells assessed as reduction in cell viability after 24 hrs by MTT assay; assay type: functional, cell-based; details: for IC50: RG2, 24 h
[5] = tested on: RG2; experiment: Cytotoxicity against rat RG2 cells assessed as reduction in cell viability after 48 hrs by MTT assay; assay type: functional, cell-based; details: for IC50: RG2, 48 h
[6] = tested on: RG2; experiment: Cytotoxicity against rat RG2 cells assessed as reduction in cell viability after 72 hrs by MTT assay; assay type: functional, cell-based; details: for IC50: RG2, 72 h
[7] = Cytotoxicity against rat CTX TNA2 cells assessed as reduction in cell viability after 24 hrs by MTT assay; assay type: cell-based; details: CTX TNA2, 24 h
[8] = Cytotoxicity against rat CTX TNA2 cells assessed as reduction in cell viability after 48 hrs by MTT assay; assay type: cell-based; details: CTX TNA2, 48 h
[9] = Cytotoxicity against rat CTX TNA2 cells assessed as reduction in cell viability after 72 hrs by MTT assay; assay type: cell-based; details: CTX TNA2, 72 h
[10] = tested on: DBTRG-05MG; experiment: Synergistic cytotoxicity against human DBTRG-05MG cells assessed as combination index at 134.9 uM after 48 hrs in presence of 206 uM TMZ by MTT assay; assay type: functional
[11] = tested on: RG2; experiment: Synergistic cytotoxicity against rat RG2 cells assessed as synergistic effect index at 89.9 uM after 48 hrs in presence of 103 uM TMZ by MTT assay; assay type: functional
[12] = Synergistic cytotoxicity against rat CTX TNA2 cells assessed as synergistic effect index at 112.4 uM after 48 hrs in presence of 103 uM TMZ by MTT assay; assay type: cell-based; details: ctx tna2, 48 h
[13] = Synergistic cytotoxicity against rat CTX TNA2 cells assessed as synergistic effect index at 112.4 uM after 48 hrs in presence of 309 uM TMZ by MTT assay; assay type: cell-based; details: ctx tna2, 48 h
[14] = Synergistic cytotoxicity against rat CTX TNA2 cells assessed as synergistic effect index at 112.4 uM after 48 hrs in presence of 515.1 uM TMZ by MTT assay; assay type: cell-based; details: ctx tna2, 48 h
[15] = Synergistic cytotoxicity against rat CTX TNA2 cells assessed as combination index at 89.9 uM after 48 hrs in presence of 412.1 uM TMZ by MTT assay; assay type: cell-based; details: ctx tna2, 48 h
[16] = Synergistic cytotoxicity against rat CTX TNA2 cells assessed as combination index at 134.9 uM after 48 hrs in presence of 206 uM TMZ by MTT assay; assay type: cell-based; details: ctx tna2, 48 h
[17] = tested on: DBTRG-05MG; experiment: Induction of cell cycle arrest in human DBTRG-05MG cells assessed as accumulation at G0/G1 phase at 112.4 uM after 12 hrs in presence of TMZ by propidium iodide staining based flow cytometric analysis (reference value: 47.16 +/- 1.55%); assay type: functional
[18] = tested on: DBTRG-05MG; experiment: Induction of cell cycle arrest in human DBTRG-05MG cells assessed as accumulation at S phase at 112.4 uM after 12 hrs in presence of TMZ by propidium iodide staining based flow cytometric analysis (reference value: 22.76 +/- 1.56%); assay type: functional
[19] = tested on: RG2; experiment: Induction of cell cycle arrest in rat RG2 cells assessed as accumulation at S phase at 112.4 uM after 6 hrs by propidium iodide staining based flow cytometric analysis (reference value: 20.15 +/- 2.44%); assay type: functional
[20] = tested on: RG2; experiment: Induction of cell cycle arrest in rat RG2 cells assessed as accumulation at G0/G1 phase at 112.4 uM after 6 hrs in presence of TMZ by propidium iodide staining based flow cytometric analysis (reference value: 57.81 +/- 1.9%); assay type: functional
[21] = tested on: RG2; experiment: Induction of cell cycle arrest in rat RG2 cells assessed as accumulation at S phase at 112.4 uM after 24 hrs by propidium iodide staining based flow cytometric analysis (reference value: 20.15 +/- 2.44%); assay type: functional
[22] = tested on: DBTRG-05MG; experiment: Induction of cell cycle arrest in human DBTRG-05MG cells assessed as CDK2 expression at 112.4uM after 48 hrs in presence of TMZ by Western blot analysis (reference value: 1); assay type: functional
[23] = tested on: RG2; experiment: Induction of cell cycle arrest in rat RG2 cells assessed as CyclinB1 expression at 112.4 uM after 48 hrs in presence of TMZ by Western blot analysis (reference value: 1); assay type: functional
[24] = molecular target: T1, Serine/threonine-protein kinase AKT (Homo sapiens) (UniProt P31751+Q9Y243+P31749); experiment: Inhibition of AKT phosphorylation at S473 residues in human DBTRG-05MG cells at 112.4uM after 48 hrs by Western blot analysis; assay type: cell-based
T1 sequence (P31749 whole entry, looked up, the tested form may be a part): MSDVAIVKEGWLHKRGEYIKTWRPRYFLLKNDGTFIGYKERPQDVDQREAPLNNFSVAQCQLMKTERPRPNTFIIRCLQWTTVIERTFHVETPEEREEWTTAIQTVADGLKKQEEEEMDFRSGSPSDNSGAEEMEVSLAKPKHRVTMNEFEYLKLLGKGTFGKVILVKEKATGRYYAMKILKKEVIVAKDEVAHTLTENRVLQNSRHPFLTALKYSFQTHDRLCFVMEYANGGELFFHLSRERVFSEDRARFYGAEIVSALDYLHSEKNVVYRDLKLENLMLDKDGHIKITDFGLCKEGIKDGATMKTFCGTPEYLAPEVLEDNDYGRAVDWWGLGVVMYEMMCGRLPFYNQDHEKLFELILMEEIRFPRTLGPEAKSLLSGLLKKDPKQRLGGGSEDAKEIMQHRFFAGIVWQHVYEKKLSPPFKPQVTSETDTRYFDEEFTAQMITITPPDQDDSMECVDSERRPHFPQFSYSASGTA
T1 sequence (P31751 whole entry, looked up, the tested form may be a part): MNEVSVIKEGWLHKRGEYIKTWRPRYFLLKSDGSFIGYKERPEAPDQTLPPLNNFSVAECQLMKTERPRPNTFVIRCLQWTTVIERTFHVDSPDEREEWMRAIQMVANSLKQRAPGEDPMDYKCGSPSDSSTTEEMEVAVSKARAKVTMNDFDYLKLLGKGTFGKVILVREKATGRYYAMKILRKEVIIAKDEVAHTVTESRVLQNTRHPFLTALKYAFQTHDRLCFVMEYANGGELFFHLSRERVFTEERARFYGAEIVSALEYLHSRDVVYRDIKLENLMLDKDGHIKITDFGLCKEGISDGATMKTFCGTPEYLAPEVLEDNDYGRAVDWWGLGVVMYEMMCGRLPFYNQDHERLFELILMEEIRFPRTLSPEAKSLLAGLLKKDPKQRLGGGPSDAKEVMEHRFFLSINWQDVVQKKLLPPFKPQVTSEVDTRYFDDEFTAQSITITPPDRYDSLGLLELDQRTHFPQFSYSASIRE
T1 sequence (Q9Y243 whole entry, looked up, the tested form may be a part): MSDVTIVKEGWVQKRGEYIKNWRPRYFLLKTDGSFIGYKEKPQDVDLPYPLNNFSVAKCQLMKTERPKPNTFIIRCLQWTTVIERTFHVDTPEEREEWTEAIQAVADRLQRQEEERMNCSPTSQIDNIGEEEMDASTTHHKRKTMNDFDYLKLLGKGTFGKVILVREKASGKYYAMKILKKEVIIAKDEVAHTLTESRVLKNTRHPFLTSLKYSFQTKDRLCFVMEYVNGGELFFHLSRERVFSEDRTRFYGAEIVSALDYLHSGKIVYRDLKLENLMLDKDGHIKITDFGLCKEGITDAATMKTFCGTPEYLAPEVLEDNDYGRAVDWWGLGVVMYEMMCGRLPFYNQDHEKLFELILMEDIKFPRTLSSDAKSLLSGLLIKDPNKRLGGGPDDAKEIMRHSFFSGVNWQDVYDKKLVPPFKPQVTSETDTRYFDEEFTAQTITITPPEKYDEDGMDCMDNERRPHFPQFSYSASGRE

[25] = tested on: DBTRG-05MG; experiment: Induction of apoptosis in human DBTRG-05MG cells assessed as increase in DNA fragmentation at 112.4 uM after 48 hrs in presence of TMZ by TUNEL assay; assay type: functional, cell-based
[26] = tested on: DBTRG-05MG; experiment: Induction of apoptosis in human DBTRG-05MG cells assessed as Bcl2 expression at 112.4 uM after 48 hrs in presence of TMZ by Western blot analysis (reference value: 1); assay type: functional
[27] = tested on: DBTRG-05MG; experiment: Induction of apoptosis in human DBTRG-05MG cells assessed as phosphorylated caspace-3 expression at 112.4 uM after 48 hrs in presence of TMZ by Western blot analysis (reference value: 1); assay type: functional
[28] = tested on: DBTRG-05MG; experiment: Induction of DNA damage in human DBTRG-05MG cells assessed as Chk1 phosphorylation at ser345 residues at 112.4 uM after 48 hrs by Western blot analysis (reference value: 1); assay type: functional
[29] = tested on: DBTRG-05MG; experiment: Induction of DNA damage in human DBTRG-05MG cells assessed as ATR phosphorylation at ser428 residues at 112.4 uM after 48 hrs in presence of TMZ by Western blot analysis (reference value: 1); assay type: functional
[30] = tested on: RG2; experiment: Induction of DNA damage in rat RG2 cells assessed as Chk1 phosphorylation at ser345 at 112.4 uM after 48 hrs in presence of TMZ by Western blot analysis (reference value: 1); assay type: functional
[31] = tested on: DBTRG-05MG; experiment: Induction of cell cycle arrest in human DBTRG-05MG cells assessed as accumulation at G0/G1 phase at 206 uM after 6 hrs by propidium iodide staining based flow cytometric analysis (reference value: 47.16 +/- 1.55%); assay type: functional
[32] = tested on: RG2; experiment: Induction of cell cycle arrest in rat RG2 cells assessed as CyclinA expression at 206 uM after 48 hrs by Western blot analysis (reference value: 1); assay type: functional
[33] = molecular target: T1, Serine/threonine-protein kinase AKT (Homo sapiens); experiment: Inhibition of AKT phosphorylation at S473 residues in human DBTRG-05MG cells at 206 uM after 48 hrs by Western blot analysis; assay type: cell-based
[34] = tested on: DBTRG-05MG; experiment: Induction of apoptosis in human DBTRG-05MG cells assessed as increase in apoptotic body formation at 206 uM after 48 hrs by TUNEL assay; assay type: functional, cell-based
[35] = tested on: DBTRG-05MG; experiment: Induction of DNA damage in human DBTRG-05MG cells assessed as Chk1 phosphorylation at ser345 residues at 206 uM after 48 hrs by Western blot analysis (reference value: 1); assay type: functional

fold change (FC) [24]: 0.8
Structure (SMILES): C[C@@H]1CC[C@H]2C(C)(C)[C@H]3C[C@@]12CC[C@@]3(C)O [CEDROL]
Activity [1]: Dose-dependent effect
IC50 [1]: 119 µM
Activity [2]: Dose-dependent effect
IC50 [2]: 102 µM
Activity [3]: Dose-dependent effect
IC50 [3]: 107 µM
Activity [4]: Dose-dependent effect
IC50 [4]: 107 µM
Activity [5]: Dose-dependent effect
IC50 [5]: 93.3 µM
Activity [6]: Dose-dependent effect
IC50 [6]: 89.2 µM
IC50 [7]: 238 µM
IC50 [8]: 280 µM
IC50 [9]: 255 µM
CI [10]: 0.59
Activity_index [11]: 0.65
Activity_index [12]: 0.26
Activity_index [13]: 0.51
Activity_index [14]: 0.7
CI [15]: 1.11
CI [16]: 1.13
Activity [17]: 49.57%
Activity [18]: 16.75%
Activity [19]: 17.99%
Activity [20]: 61.59%
Activity [21]: 9.09%
fold change (FC) [22]: 0.7
fold change (FC) [23]: 0.7
Activity [25]: Active
fold change (FC) [26]: 0.9
fold change (FC) [27]: 1.2
fold change (FC) [28]: 0.9
fold change (FC) [29]: 2.3
fold change (FC) [30]: 3.5

fold change (FC) [33]: 0.7
Structure (SMILES): Cn1nnc2c(C(N)=O)ncn2c1=O [TEMOZOLOMIDE]
IC50 [1]: 974 µM
IC50 [2]: 355 µM
IC50 [3]: 119 µM
IC50 [4]: 962 µM
IC50 [5]: 348 µM
IC50 [6]: 107 µM
IC50 [7]: 666 µM
IC50 [8]: 487 µM
IC50 [9]: 431 µM
Activity [31]: 40.56%
fold change (FC) [32]: 1.9
Activity [34]: Active
fold change (FC) [35]: 1
